Like-named read-outs stand apart in the source and are kept apart here.

Assay [1] relates to human influenza A virus (VR-1520). The assay is classed as cell-based. The settings on record: for output of Antigen to the control's output: Vero cells, control 245 Antigen units/ml.
The test system of assay [2] is Influenza Virus A's Neuraminidase. Description: Neuraminidase activity of cell-free virus, 4-methylumbelliferyl N-acetylneuramic acid substrate.
Text: The method of these experiments are well known in the art, however, in brief, cell free virus are mixed with an equal volume of the composition in Table 1 or Ascorbic Acid in another, at various concentrations, and any inhibitory activity is observed at various time points after the mixture. Spectrophotometer assay for Neuraminidase has been established in the laboratory at using 4-methylumbelliferyl N-acetylneuramic acid as a substrate in the cell free system.

Regarding `O=C1O[C@H]([C@@H](O)CO)C(O)=C1O` [ascorbic acid], the entries for the “output of Antigen to the control's output” value in assay [1] (50 micromoles), in assay [1] (100 micromoles) and in assay [1] (250 micromoles) were 35%, 45% and 41%, respectively. Besides, the “Influenza A virus antigen production in Vero cells (figure legend)” value in assay [1] (various concentrations, serum-free medium) was “marginal decrease”. Besides, the “Neuraminidase activity to the control's” value is 90% in assay [2] (1000 microgram/ml), 85% in assay [2] (2000 microgram/ml) and 80% in assay [2] (3000 microgram/ml).
